Molecules are shown by their SMILES. Counter-ions that a name gives are not always drawn.

In this assay the target is T1, substance P receptor (Homo sapiens, UniProt P25103).
T1 construct: The receptor was prepared from human lymphoblast cells (IM-9); endogenous in cells; host or cells: IM-9 human lymphoblast cells (membrane preparation)
T1 sequence (P25103 whole entry): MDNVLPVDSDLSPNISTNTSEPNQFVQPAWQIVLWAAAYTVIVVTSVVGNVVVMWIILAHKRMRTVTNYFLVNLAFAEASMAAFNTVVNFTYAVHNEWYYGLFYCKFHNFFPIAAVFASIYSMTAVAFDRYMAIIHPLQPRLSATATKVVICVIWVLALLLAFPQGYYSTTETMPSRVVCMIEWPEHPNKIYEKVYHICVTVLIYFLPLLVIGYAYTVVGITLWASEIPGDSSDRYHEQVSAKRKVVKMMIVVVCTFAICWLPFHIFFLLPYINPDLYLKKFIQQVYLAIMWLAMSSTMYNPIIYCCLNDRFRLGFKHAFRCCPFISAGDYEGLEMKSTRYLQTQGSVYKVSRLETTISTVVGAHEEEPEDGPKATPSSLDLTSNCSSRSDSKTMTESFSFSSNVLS
Put plainly: Radioligand receptor binding inhibitory activity (125I-BHSP binding to receptor from IM-9 cells). The conditions noted are these: receptor from human lymphoblast cells (IM-9); radioligand 125I-BHSP; 25° C., 30 minutes. The procedure:
Radioligand receptor binding inhibitory activity (Binding inhibitory activity using receptor from human lymphoblast cells (IM-9))
The residue was washed twice with 30 mL of the above-mentioned buffer, which was then preserved frozen (−80° C.) as a specimen of the receptor.
The specimen was suspended in a reaction buffer (50 mM Tri-HCl buffer (pH 7.4), 0.02% bovine serum albumin, 1 mM phenylmethylsulfonyl fluoride, 2 μg/mL chymostatin, 40 μg/mL bacitracin and 3 mM manganese chloride) to have protein in the concentration of 0.5 mg/mL of protein and 100 μl portion of the suspension was used in the reaction. […] The amount of nonspecific binding was determined by adding substance P at a final concentration of 2×10^−6 M.
After the reaction, using a cell harvester (290 PHD, Cambridge Technology, Inc, U.S.A.), filtration was carried out through a glass filter (GF/B, Whatman, U.S.A.), which was immersed in 0.1% polyethyleneimine for 24 hours and dried. After washing three times with 250 μL of 50 mM Tris-HCl buffer (pH 7.4) containing 0.02% bovine serum albumin, the radioactivity remaining on the filter was determined with a gamma counter.
The compound `CC(=O)N1CCC(C(=O)N2CC[C@@H](C(=O)N(C)Cc3cc(C(F)(F)F)cc(C(F)(F)F)c3)[C@H](c3ccccc3)C2)CC1` (relative stereo) [Example 35, (3R*,4R*)-1-[(1-acetylpiperidin-4-yl)carbonyl]-N-[3,5-bis(trifluoromethyl)benzyl]-N-methyl-3-phenylpiperidine-4-carboxamide] had a half-maximal inhibitory concentration (IC50) of 0.098 nM.

Compound `Cc1cc(F)ccc1[C@@H]1CN(Cc2n[nH]c(=O)[nH]2)CC[C@H]1C(=O)N(C)Cc1cc(C(F)(F)F)cc(C(F)(F)F)c1` (relative stereo) [Example 54, (3R*,4R*)-N-[3,5-bis(trifluoromethyl)benzyl]-3-(4-fluoro-2-methylphenyl)-N-methyl-1-[(5-oxo-4,5-dihydro-1H-1,2,4-triazol-3-yl)methyl]piperidine-4-carboxamide] displayed an IC50 of 0.036 nM.

Compound `COCC(=O)N1CC[C@@H](C(=O)N(C)Cc2cc(C(F)(F)F)cc(C(F)(F)F)c2)[C@H](c2ccc(F)cc2C)C1` (relative stereo) [Example 40, (3R*,4R*)-N-[3,5-bis(trifluoromethyl)benzyl]-3-(4-fluoro-2-methylphenyl)-1-(methoxyacetyl)-N-methylpiperidine-4-carboxamide] yielded an IC50 of 0.058 nM.

The compound `CC(=O)N1CCC(C(=O)N2CC[C@@H](C(=O)N(C)Cc3cc(C(F)(F)F)cc(C(F)(F)F)c3)[C@H](c3ccc(F)cc3C)C2)CC1` (relative stereo) [Example 46, (3R*,4R*)-1-[(1-acetylpiperidin-4-yl)carbonyl]-N-[3,5-bis(trifluoromethyl)benzyl]-3-(4-fluoro-2-methylphenyl)-N-methylpiperidine-4-carboxamide] had a 50% inhibitory concentration (IC50) of 0.047 nM.

Compound `Cc1cc(F)ccc1[C@@H]1CN(C(=O)CC2NC(=O)NC2=O)CC[C@H]1C(=O)N(C)Cc1cc(C(F)(F)F)cc(C(F)(F)F)c1` (relative stereo) [Example 43, (3R*,4R*)-N-[3,5-bis(trifluoromethyl)benzyl]-1-[(2,5-dioxoimidazolidin-4-yl)acetyl]-3-(4-fluoro-2-methylphenyl)-N-methylpiperidine-4-carboxamide] came in with an IC50 of 0.064 nM.

`CC(=O)N1CCC(C(=O)N2CC[C@@H](C(=O)N(C)Cc3cc(C(F)(F)F)cc(C(F)(F)F)c3)[C@H](c3ccc(F)cc3)C2)CC1` (relative stereo) [Example 45, (3R*,4R*)-1-[(1-acetylpiperidin-4-yl)carbonyl]-N-[3,5-bis(trifluoromethyl)benzyl]-3-(4-fluorophenyl)-N-methylpiperidine-4-carboxamide] displayed an IC50 of 0.052 nM.

In the case of `CC(=O)N1CCC(C(=O)N2CC[C@H](C(=O)N(C)Cc3cc(C(F)(F)F)cc(C(F)(F)F)c3)[C@H](c3ccc(F)cc3)C2)CC1` (relative stereo) [Example 44, (3R*,4S*)-1-[(1-acetylpiperidin-4-yl)carbonyl]-N-[3,5-bis(trifluoromethyl)benzyl]-3-(4-fluorophenyl)-N-methylpiperidine-4-carboxamide], the IC50 is 0.019 nM.

As for `Cc1cc(F)ccc1[C@@H]1CN(C(=O)Cn2cnnn2)CC[C@H]1C(=O)N(C)Cc1cc(C(F)(F)F)cc(C(F)(F)F)c1` (relative stereo) [Example 42, (3R*,4R*)-N-[3,5-bis(trifluoromethyl)benzyl]-3-(4-fluoro-2-methylphenyl)-N-methyl-1-(1H-tetrazol-1-ylacetyl)piperidine-4-carboxamide], the IC50 turned out to be 0.022 nM.

`Cc1cc(F)ccc1[C@@H]1CNCC[C@H]1C(=O)N(C)Cc1cc(C(F)(F)F)cc(C(F)(F)F)c1` (relative stereo) [Example 12, (3R*,4R*)-N-[3,5-bis(trifluoromethyl)benzyl]-3-(4-fluoro-2-methylphenyl)-N-methylpiperidine-4-carboxamide hydrochloride] gave an IC50 of 0.051 nM.

In turn, `CCN(CC)CCC(=O)N1CC[C@@H](C(=O)N(C)Cc2cc(C(F)(F)F)cc(C(F)(F)F)c2)[C@H](c2ccc(F)cc2C)C1` (relative stereo) [Example 41, (3R*,4R*)-N-[3,5-bis(trifluoromethyl)benzyl]-1-(N,N-diethyl-β-alanyl)-3-(4-fluoro-2-methylphenyl)-N-methylpiperidine-4-carboxamide Hydrochloride] came in with an IC50 of 0.025 nM.

Consider `CC(=O)N1CCC(C(=O)N2CC[C@H](C(=O)N(C)Cc3cc(C(F)(F)F)cc(C(F)(F)F)c3)[C@H](c3ccccc3)C2)CC1` (relative stereo) [Example 30, (3R*,4S*)-1-[(1-acetylpiperidin-4-yl)carbonyl]-N-[3,5-bis(trifluoromethyl)benzyl]-N-methyl-3-phenylpiperidine-4-carboxamide], for which the IC50 turned out to be 0.049 nM.

`CC(=O)NCC(=O)N1CC[C@@H](C(=O)N(C)Cc2cc(C(F)(F)F)cc(C(F)(F)F)c2)[C@H](c2ccc(F)cc2C)C1` (relative stereo) [Example 77, (3R*,4R*)-1-(N-acetylglycyl)-N-[3,5-bis(trifluoromethyl)benzyl]-3-(4-fluoro-2-methylphenyl)-N-methylpiperidine-4-carboxamide]: the IC50 was found to be 0.043 nM.

`Cc1cc(F)ccc1[C@@H]1CN(C(=O)C(N)=O)CC[C@H]1C(=O)N(C)Cc1cc(C(F)(F)F)cc(C(F)(F)F)c1` (relative stereo) [Example 73, (3R*,4R*)-1-[amino(oxo)acetyl]-N-[3,5-bis(trifluoromethyl)benzyl]-3-(4-fluoro-2-methylphenyl)-N-methylpiperidine-4-carboxamide] showed an IC50 of 0.052 nM.

In the case of `Cc1cc(F)ccc1[C@@H]1CN(C(N)=O)CC[C@H]1C(=O)N(C)Cc1cc(C(F)(F)F)cc(C(F)(F)F)c1` (relative stereo) [Example 75, (3R*,4R*)-N^4-[3,5-bis(trifluoromethyl)benzyl]-3-(4-fluoro-2-methylphenyl)-N^4-methylpiperidine-1,4-dicarboxamide], the IC50 was 0.035 nM.

Values taken from patent US20090186874A1, “Carboxamide derivative and use thereof” (priority 2004, published 2009).
